Laboratory results from PubChem BioAssay (NCI).
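Growth conditions: 96-well plates. Treatment: test compound, 48 hours, 5 concentrations. Analysis: linear interpolation between bracketing concentrations; unreached endpoints set to highest concentration. Abbreviation: GI50, concentration required for 50% inhibition of growth. Definition used: TGI = concentration required for complete inhibition of growth.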

What was measured:
Assay in all cases: NCI anticancer screen, dose series, 48 h
[1] = tested on: 786-0 renal
[2] = tested on: A498 renal
[3] = tested on: A549 NSCLC
[4] = tested on: ACHN renal
[5] = tested on: BT-549 breast
[6] = tested on: CAKI-1 renal
[7] = tested on: CCRF-CEM leukemia
[8] = tested on: COLO 205 colon
[9] = tested on: DU-145 prostate
[10] = tested on: EKVX NSCLC
[11] = tested on: HCC-2998 colon
[12] = tested on: HCT-116 colon
[13] = tested on: HCT-15 colon
[14] = tested on: HL-60(TB) leukemia
[15] = tested on: HOP-62 NSCLC
[16] = tested on: HOP-92 NSCLC
[17] = tested on: HS 578T breast
[18] = tested on: HT29 colon
[19] = tested on: IGROV1 ovarian
[20] = tested on: K-562 leukemia
[21] = tested on: KM12 colon
[22] = tested on: LOX IMVI melanoma
[23] = tested on: M14 melanoma
[24] = tested on: MALME-3M melanoma
[25] = tested on: MCF7 breast
[26] = tested on: MDA-MB-231 breast
[27] = tested on: MDA-MB-435
[28] = tested on: MOLT-4 leukemia
[29] = tested on: NCI-H226 lung
[30] = tested on: NCI-H23 lung
[31] = tested on: NCI-H460 lung
[32] = tested on: NCI-H522 lung
[33] = tested on: NCI/ADR-RES ovarian
[34] = tested on: OVCAR-3 ovarian
[35] = tested on: OVCAR-4 ovarian
[36] = tested on: OVCAR-5 ovarian
[37] = tested on: OVCAR-8 ovarian
[38] = tested on: PC-3 prostate
[39] = tested on: RPMI-8226 leukemia
[40] = tested on: RXF 393 renal
[41] = tested on: SF-268 CNS
[42] = tested on: SF-295 CNS
[43] = tested on: SF-539 CNS
[44] = tested on: SK-MEL-2 melanoma
[45] = tested on: SK-MEL-28 melanoma
[46] = tested on: SK-MEL-5 melanoma
[47] = tested on: SK-OV-3 ovarian
[48] = tested on: SN12C renal
[49] = tested on: SNB-19 CNS
[50] = tested on: SNB-75 CNS
[51] = tested on: SR leukemia
[52] = tested on: SW-620 colon
[53] = tested on: T-47D breast
[54] = tested on: TK-10 renal
[55] = tested on: U251 CNS
[56] = tested on: UACC-257 melanoma
[57] = tested on: UACC-62 melanoma
[58] = tested on: UO-31 renal

## C/C(=N/NC(N)=S)c1ccc(Nc2nc(SCC(C)C)nc(-c3ccc(F)cc3)c2C#N)cc1
[1]
  GI50: 2.07 µM
  TGI: 13.8 µM
[2]
  GI50: 2.99 µM
  TGI: 8.8 µM
[3]
  GI50: 0.488 µM
  TGI: 10.9 µM
[4]
  GI50: 0.423 µM
  TGI: 11.4 µM
[5]
  GI50: 4.04 µM
  TGI: 18.4 µM
[6]
  GI50: 1.65 µM
  TGI: 7.49 µM
[7]
  GI50: 5.83 µM
  TGI: > 100 µM
[8]
  GI50: 1.18 µM
  TGI: 22.1 µM
[9]
  GI50: 1.55 µM
  TGI: 20.3 µM
[10]
  GI50: 4.53 µM
  TGI: 25.4 µM
[11]
  GI50: 5.69 µM
  TGI: 31.4 µM
[12]
  GI50: 0.539 µM
  TGI: 13.6 µM
[13]
  GI50: 0.928 µM
  TGI: > 100 µM
[14]
  GI50: 17.9 µM
  TGI: > 100 µM
[15]
  GI50: 3.04 µM
  TGI: 13.6 µM
[16]
  GI50: 1.12 µM
  TGI: 5.01 µM
[17]
  GI50: 3.08 µM
  TGI: 54.1 µM
[18]
  GI50: 1.28 µM
  TGI: 15.6 µM
[19]
  GI50: 4.82 µM
  TGI: 21.4 µM
[20]
  GI50: 1.41 µM
  TGI: > 100 µM
[21]
  GI50: 12.7 µM
  TGI: > 100 µM
[22]
  GI50: 1.13 µM
  TGI: 10.4 µM
[23]
  GI50: 4.41 µM
  TGI: 26 µM
[24]
  GI50: 1.88 µM
  TGI: 11.6 µM
[25]
  GI50: 0.696 µM
  TGI: 28.8 µM
[26]
  GI50: 5.91 µM
  TGI: 25.9 µM
[27]
  GI50: 2.14 µM
  TGI: 17.4 µM
[28]
  GI50: 2.07 µM
  TGI: 79.2 µM
[29]
  GI50: 1.46 µM
  TGI: 14.1 µM
[30]
  GI50: 1.72 µM
  TGI: 12 µM
[31]
  GI50: 0.414 µM
  TGI: 10.3 µM
[32]
  GI50: 2.59 µM
  TGI: 13.1 µM
[33]
  GI50: 1.89 µM
  TGI: 19.1 µM
[34]
  GI50: 0.685 µM
  TGI: 4.95 µM
[35]
  GI50: 0.329 µM
  TGI: 2.23 µM
[36]
  GI50: 6.94 µM
  TGI: 47.5 µM
[37]
  GI50: 3.22 µM
  TGI: 26.4 µM
[38]
  GI50: 0.59 µM
  TGI: 5.52 µM
[39]
  GI50: 3.26 µM
  TGI: 80.3 µM
[40]
  GI50: 1.95 µM
  TGI: 7.16 µM
[41]
  GI50: 10.9 µM
  TGI: 33.1 µM
[42]
  GI50: 0.598 µM
  TGI: 2.69 µM
[43]
  GI50: 2.01 µM
  TGI: 10.4 µM
[44]
  GI50: 5.09 µM
  TGI: 19 µM
[45]
  GI50: 2.76 µM
  TGI: 13.4 µM
[46]
  GI50: 2.74 µM
  TGI: 15.6 µM
[47]
  GI50: 3.1 µM
  TGI: 13.7 µM
[48]
  GI50: 0.717 µM
  TGI: 14.1 µM
[49]
  GI50: 9.08 µM
  TGI: 22.4 µM
[50]
  GI50: 0.418 µM
  TGI: 3.95 µM
[51]
  GI50: 0.509 µM
  TGI: 18.9 µM
[52]
  GI50: 0.62 µM
  TGI: > 100 µM
[53]
  GI50: 2.11 µM
  TGI: 29.8 µM
[54]
  GI50: 3.56 µM
  TGI: 18.9 µM
[55]
  GI50: 0.77 µM
  TGI: 11 µM
[56]
  GI50: 4.56 µM
  TGI: 30.1 µM
[57]
  GI50: 1.66 µM
  TGI: 10.5 µM
[58]
  GI50: 2.75 µM
  TGI: 15.4 µM
